Laboratory results taken from patent publication US8906684B2, “Three dimensional cell patterned biopolymer scaffolds and methods of making the same” (The Regents of the University of California, priority 2002, dated 2014).

System: HepG2 cells
Assay type: cell-based
Settings: HepG2, amounts used for photocrosslinking
Description: Cell culture and viability assays in the presence of photopolymerizing agents. HepG2 cells (American Type Culture Collection, Manassas, Va.) were cultured in 175 cm^2 flasks (Fisher, Springfield, N.J.) and were passaged preconfluency no more than 13 times. The cells were maintained in minimal essential medium (MEM; Gibco, Grand Island, N.Y.) supplemented with 5% fetal bovine serum, 100 ug/mL penicillin, and 100 ug/mL streptomycin and incubated at 5% CO2 and 37° C. The cells to be incorporated into hydrogels were added to the prepolymer solution containing initiator and were mixed gently prior to UV exposure.
In order to explore the effects of photoinitiator and UV exposure on cell death, individual components were tested in HepG2 cultures. 3.0×10^5 cells were seeded in six-well culture dishes and allowed to proliferate until near confluency. A solution of 300 mg/mL of 2,2-dimethyl-2-phenyl-acetophenone (Aldrich) in 1-vinyl-2-pyrrolidinone (Sigma) was added to MEM in concentrations of 0, 3, 5, and 10 ul/ml. […] Cell viability was measured by an Mi viability assay, which forms a purple precipitate by cleavage of the tetrazolium ring by mitochondrial dehydrogenase enzymes. […] The absorbance was measured at 570 nm with a SpectraMax Plus spectrophotometer (Molecular Devices, Sunnyvale, Calif.). […]

In the case of C=CN1CCCC1=O [1-vinyl-2-pyrrolidinone], the “toxicity to cells of initiator solvent alone” value is reported as “not found to be toxic”.
